{"source": "paper PMC12471852", "about": "“Design and Synthesis of Marine-Inspired Itampolin A Derivatives to Overcome Chemoresistance in NSCLC via Cholesterol Homeostasis Modulation” (Marine Drugs, 2025)", "key": {"PC9/GR cells [1]": {"tested_on": "PC9/GR cells", "assay": "Intracellular total cholesterol quantification, PC9/GR cells", "type": "cell-based, human", "experimental": "Following sample collection, intracellular total cholesterol levels were quantified using a commercial Total Cholesterol (T-CHO) assay kit (Nanjing Jiancheng Bioengineering Institute, Nanjing, China) according to the manufacturer’s protocol. Cells were treated as indicated 24 h prior to analysis. Total cellular protein was extracted, and protein concentration was determined using a bicinchoninic acid (BCA) assay. Protein aliquots were loaded in duplicate into a 96-well microplate. Reagents were added sequentially as specified in the kit instructions. After incubation at 37 °C for 10 min, absorbance was measured at 510 nm using a microplate reader. Total cholesterol content was normalized to cellular protein concentration and expressed as μg cholesterol per mg protein."}, "PC9/GR cells [2]": {"tested_on": "PC9/GR cells", "assay": "MTT anti-proliferation assay, gefitinib-resistant PC9/GR cells", "type": "cell-based, human", "conditions": "for MTT, PC9/GR, value relative to control (=100), single replicate: 24 h", "experimental": "(§1) To evaluate the tumor-selective activity of compounds 4l and 4m, dose–response studies were performed on wild-type PC9 and gefitinib-resistant PC9/GR cell lines. […] Subtoxic concentrations of 25, 50, and 75 μM were employed to ensure specificity for drug-resistant phenotypes while preserving normal cell viability. […] To assess long-term proliferative potential, clonogenic survival assays were performed. Cells pretreated with 4l (24 h) were trypsinized to generate single-cell suspensions, plated at 300 cells/well, and cultured for 14 days. […] Cell migration ability was evaluated by the scratch healing assay. […] To evaluate the pro-apoptotic efficacy of 4l, we employed a dual-staining approach using Annexin V-FITC and propidium iodide (PI) for quadrant-specific quantification of programmed cell death. Annexin V binds externalized phosphatidylserine (PS), a hallmark of early apoptosis, while PI permeabilization discriminates late-stage apoptotic or necrotic cells.\n(§2) The human normal lung epithelial cell line BEAS-2B, non-small cell lung carcinoma (NSCLC) cell line PC9, and gefitinib-resistant PC9/GR cell line were purchased from Procell Life Science & Technology Co., Ltd. (Wuhan, China). All cell lines were maintained in RPMI-1640 medium (BI, Beit Haemek, Mateh Asher, Israel) supplemented with 10% fetal bovine serum (FBS, Gibco, Thermo Fisher Scientific, Waltham, MA, USA) and 1% penicillin–streptomycin–amphotericin B sterile solution (Solarbio, Beijing, China). Cells were cultured at 37 °C in a humidified incubator with 5% CO2. For subculturing, cells were harvested using trypsin-EDTA solution upon reaching 70–80% confluence and resuspended at appropriate densities for subsequent experiments.\n(§3) MTT: Cells (5 × 10^4/mL) were treated with 4l (25–100 μM, 24–48 h), incubated with MTT (10 μL/well, 4–6 h), and dissolved in DMSO. Absorbance (490 nm) was measured to assess viability."}, "PC9 cells": {"tested_on": "PC9 cells", "assay": "MTT anti-proliferation assay, PC9 cells", "type": "cell-based, human", "conditions": "for MTT, PC9, value relative to control (=100), single replicate: 24 h", "experimental": "as §1, §2, §3"}, "[3]": {"tested_on": "PC9/GR nude mouse xenografts", "assay": "PC9/GR nude mouse xenograft tumor growth", "type": "in vivo, BALB/c nude mice", "description": "(§4) For many years, the technique of implanting human tumor cell lines into nude mice models has been widely used to predict the anti-cancer effects of targeted anti-cancer drugs. In the nude mouse tumor implantation experiment, we continuously monitored the changes in the mouse body weight after administration. […] At the end of the experiment, after euthanizing the nude mice using the spinal dislocation method, we isolated the tumor tissues, weighed them, and conducted statistical analysis.\n(§5) BALB/c nude mice (n = 12) were subcutaneously injected with PC9/GR cells (1 × 10^7 cells/mouse). When tumors reached 50 mm^3, mice received daily 4l or vehicle (3 weeks). Tumor volume (0.52 × length × width^2) and weight were recorded post-euthanasia."}, "[4]": {"tested_on": "C/EBPβ binding to the TM7SF2 promoter region", "assay": "ChIP-qPCR of C/EBPβ binding to the TM7SF2 promoter", "type": "cell-based, human", "conditions": "Anti-C/EBPβ group of PC9/GR cells treated with 4l", "description": "(§6) We obtained the gene promoter sequence of TM7SF2 from the NCBI database and utilized online databases JASPAR, UCSC, and hTFtarget to predict potential transcription factors for TM7SF2 (Table S2). […] Some studies indicate that p38 can induce C/EBPβ expression through the activation of p38 MAPK, JNK, or ERK in different experimental environments. We conducted Western blot experiments to detect changes in C/EBPβ expression and p38 protein activation and used ChIP and qPCR to determine whether C/EBPβ can target the TM7SF2 promoter region. […] Furthermore, the strength of this direct binding may be related to intracellular cholesterol levels.\nChIP: 4l treated cells were crosslinked (1% formaldehyde, 20 min), lysed, and sonicated. Chromatin was immunoprecipitated with target antibodies, washed, and eluted. DNA was purified for qPCR.\nqPCR: SYBR Green-based reactions (20 μL) included primers (0.4 μM each) and template DNA."}, "[5]": {"tested_on": "p38 activation / C/EBPβ expression", "assay": "Western blot of p38, p-p38 and C/EBPβ", "type": "cell-based, human", "conditions": "PC9/GR", "description": "as §6\nWestern blot: Proteins extracted with RIPA buffer were quantified (BCA), separated by SDS-PAGE, transferred to PVDF membranes, and probed with antibodies. Signals were detected by ECL."}, "TM7SF2": {"tested_on": "TM7SF2", "assay": "Transcriptome sequencing, differentially expressed genes", "type": "cell-based, human", "conditions": "4l-treated vs untreated PC9/GR", "description": "By comparing PC9/GR treated with the small molecule compound 4l against untreated PC9/GR controls, we identified significant differentially expressed genes (DEGs). […] The results of the GO enrichment analysis further emphasized the significant impact of the small molecule compound 4l on steroid biosynthesis and metabolism in lung cancer cells, with the top five pathways being steroid biosynthesis, steroid metabolism, the metabolism of hydroxylated compounds, steroid biosynthesis, and cholesterol biosynthesis (Figure 4C). […] TM7SF2 has been identified as a critical regulator of cholesterol biosynthesis and steroid metabolism in lung cancer cells, a finding central to overcoming chemoresistance in NSCLC [28]. Thus, we selected TM7SF2 as the target gene for further experiments and investigated the protein expression of TM7SF2 in 4l-treated PC9/GR cells using immunoblotting."}, "PC9/GR cells [6]": {"tested_on": "PC9/GR cells", "assay": "Transwell migration assay", "type": "cell-based, human", "experimental": "Cell migration was assessed using Transwell chambers (8.0 µm pore size; Corning, NY, USA). Cells suspended in serum-free medium were seeded into the upper chamber. The lower chamber contained 1 mL of DMEM supplemented with 10% FBS as a chemoattractant. Following 24 h of incubation, non-migrated cells on the upper membrane surface were removed. Migrated cells adherent to the lower membrane surface were fixed, stained with 0.1% crystal violet (Solarbio, China) for 15 min, and imaged. Migrated cells were quantified by counting five random fields per insert under a light microscope (Olympus, Tokyo, Japan)."}, "[7]": {"assay": "Body weight / toxicity monitoring in tumor-bearing nude mice", "type": "in vivo, BALB/c nude mice", "description": "as §4, §5"}, "[8]": {"conditions": "TM7SF2-overexpressing PC9/GR cells"}}, "note": "“And” between values parts separate entries of the source, which are not always exact repeats. Identical values can stand only once. “Also recorded” adds a separate entry of the source.", "data": [{"smiles": "O=C(NCCc1cc(Br)c(O)c(Br)c1)Nc1ccc(F)cc1", "note": "[4l, 1-(3,5-dibromo-4-hydroxyphenethyl)-3-(4-fluorophenyl)urea]", "values": [{"measurement": "intracellular cholesterol levels", "setting": "PC9/GR cells [1]; PC9/GR, 24 h treatment", "result": "reduced intracellular cholesterol levels"}, {"measurement": "effect of TM7SF2 overexpression on the 4l-induced change in intracellular cholesterol", "setting": "PC9/GR cells [1]; [8]", "result": "abrogated the reduction in intracellular cholesterol levels"}, {"measurement": "MTT, PC9/GR, value relative to control (=100), single replicate", "setting": "PC9/GR cells [2]; 25 (μM)", "result": "50.73 and 45.72 and 48.62 and 42.88"}, {"measurement": "MTT, PC9/GR, value relative to control (=100), single replicate", "setting": "PC9/GR cells [2]; 50 (μM)", "result": "40.96 and 39.65 and 38.32 and 38.58"}, {"measurement": "MTT, PC9/GR, value relative to control (=100), single replicate", "setting": "PC9/GR cells [2]; 75 (μM)", "result": "35.79 and 34.89 and 36.33 and 34.75"}, {"measurement": "MTT, PC9/GR, value relative to control (=100), single replicate", "setting": "PC9/GR cells [2]; 100 (μM)", "result": "32.66 and 25.67 and 34.43 and 24.78"}, {"measurement": "IC50", "setting": "PC9/GR cells [2]; Homo sapiens, gefitinib-resistant PC9/GR, MTT, 24-hour treatment, 0–100 μM, read-out: IC50, growth inhibition", "result": 35.2, "unit": "µM"}, {"measurement": "MTT, PC9, value relative to control (=100), single replicate", "setting": "PC9 cells; 25 (μM)", "result": "96.45 and 96.61 and 99.63 and 98.61"}, {"measurement": "MTT, PC9, value relative to control (=100), single replicate", "setting": "PC9 cells; 50 (μM)", "result": "81.78 and 87.43 and 80.72 and 89.73"}, {"measurement": "MTT, PC9, value relative to control (=100), single replicate", "setting": "PC9 cells; 75 (μM)", "result": "88.89 and 73.34 and 79.63 and 70.04"}, {"measurement": "MTT, PC9, value relative to control (=100), single replicate", "setting": "PC9 cells; 100 (μM)", "result": "57.64 and 69.62 and 60.69 and 61.33"}, {"measurement": "IC50", "setting": "PC9 cells; Homo sapiens, PC-9, wild-type PC9, MTT, 24-hour treatment, 0–100 μM, read-out: IC50, growth inhibition", "result": 136, "unit": "µM"}, {"measurement": "tumor growth inhibition compared to gefitinib-treated group", "setting": "[3]; 200 mg/kg of gefitinib and compound 4l", "result": "stronger inhibitory effect"}, {"measurement": "in vivo growth of PC9/GR xenografts (tumor volume)", "setting": "[3]; 200 mg/kg, daily, 3 weeks, p < 0.05", "result": "effectively inhibited; also recorded: significant suppression; also recorded: significantly inhibited tumor growth"}, {"measurement": "excised tumor weight", "setting": "[3]; end of experiment", "result": "consistent with the volume data"}, {"measurement": "C/EBPβ binding to TM7SF2 promoter (specific amplification bands)", "setting": "[4]", "result": "did not show specific amplification bands"}, {"measurement": "C/EBPβ expression and p38 activation", "setting": "[5]", "result": "reduce C/EBPβ expression by inhibiting p38 activation"}, {"measurement": "TM7SF2 gene expression (differentially expressed genes)", "setting": "TM7SF2", "result": "significantly downregulated"}, {"measurement": "PC9/GR cell motility (Transwell migration)", "setting": "PC9/GR cells [6]; 25, 50 and 75 μM", "result": "significant suppression"}, {"measurement": "effect of TM7SF2 overexpression on 4l inhibition of migration, proliferation and invasion", "setting": "PC9/GR cells [6]; [8]", "result": "attenuated the inhibitory effects"}, {"measurement": "mouse body weight after administration", "setting": "[7]; 200 mg/kg, 21 days", "result": "no significant decrease or fluctuation"}, {"measurement": "toxicity to nude mice / systemic toxicity", "setting": "[7]; dosage used in the xenograft experiment", "result": "did not have significant toxicity; also recorded: without eliciting systemic toxicity; also recorded: without inducing systemic toxicity"}]}]}
